This is an account of results in ChEMBL document CHEMBL3997783, “Synthesis and anti-acute myeloid leukemia activity of C-14 modified parthenolide derivatives” (Eur J Med Chem, 2017).

One may read the IC50 as the concentration that inhibits the measured activity by half.

For experiment [1], the system named is KG-1a. The experiment in a line: Cytotoxicity against human KG1a cells assessed as decrease in cell proliferation after 48 hrs by MTT assay. It counts as functional, cell-based. Background: Tetrazolium dyes change colour on reduction, which living cells bring about.
The test system of a further experiment is HL-60. Kind of experiment: Cytotoxicity against human HL60 cells assessed as decrease in cell proliferation after 48 hrs by MTT assay. The note with it: HL-60, 48 h. It counts as functional, cell-based.
The subject of experiment [2] is KG-1a. The experiment in a line: Induction of apoptosis in human KG1a cells assessed as early apoptotic cells at 10 uM after 16 hrs by annexin V-FITC/propidium iodide staining-based flow cytometric method (reference value: 0.113%). It counts as functional. (In general: Flow cytometry measures light scatter and fluorescence of single cells or particles in a stream.)

Experiment [3] relates to KG-1a. The experiment in a line: Induction of apoptosis in human KG1a cells assessed as late apoptotic cells at 10 uM after 16 hrs by annexin V-FITC/propidium iodide staining-based flow cytometric method (reference value: 1.01%). Format: functional.
The test system of experiment [4] is KG-1a. The experiment in a line: Induction of apoptosis in human KG1a cells assessed as necrotic cells at 10 uM after 16 hrs by annexin V-FITC/propidium iodide staining-based flow cytometric method (reference value: 0.170%). Format: functional.
The test system of experiment [5] is KG-1a. The experiment in a line: Induction of apoptosis in human KG1a cells assessed as viable cells at 10 uM after 16 hrs by annexin V-FITC/propidium iodide staining-based flow cytometric method (reference value: 98.7%). The note with it: read-out: Activity. Format: functional.
The test system of experiment [6] is KG-1a. Kind of experiment: Induction of apoptosis in human KG1a cells assessed as early apoptotic cells at 20 uM after 16 hrs by annexin V-FITC/propidium iodide staining-based flow cytometric method (reference value: 0.113%). It counts as functional.
The subject of experiment [7] is KG-1a. The experiment in a line: Induction of apoptosis in human KG1a cells assessed as late apoptotic cells at 20 uM after 16 hrs by annexin V-FITC/propidium iodide staining-based flow cytometric method (reference value: 1.01%). Format: functional.
In experiment [8] the test system is KG-1a. The experiment in a line: Induction of apoptosis in human KG1a cells assessed as necrotic cells at 20 uM after 16 hrs by annexin V-FITC/propidium iodide staining-based flow cytometric method (reference value: 0.170%). Format: functional.
The test system of experiment [9] is KG-1a. The experiment in a line: Induction of apoptosis in human KG1a cells assessed as viable cells at 20 uM after 16 hrs by annexin V-FITC/propidium iodide staining-based flow cytometric method (reference value: 98.7%). Format: functional. The note with it: read-out: Activity.
The nature of experiment [10]: Selectivity ratio of IC50 for human KG1a cells to IC50 for human HL60 cells. Format: functional.

The structures appear in SMILES notation.

As for `C=C1C(=O)O[C@H]2[C@H]1CC/C(COC(=O)CCCCCC)=C\CC[C@@]1(C)O[C@@H]21`, the 50% inhibitory concentration (IC50) with KG-1a [1] is 5.8 µM; with HL-60, 6000 nM.
Turning to `C=C1C(=O)O[C@H]2[C@H]1CC/C(C(=O)N(C)C)=C\CC[C@@]1(C)O[C@@H]21`, the IC50 worked out at 6.1 µM in the experiment on KG-1a [1] and 1300 nM in the experiment on HL-60.
As for `C=C1C(=O)O[C@H]2[C@H]1CC/C(COC)=C\CC[C@@]1(C)O[C@@H]21`, the values for the half-inhibitory concentration (IC50) in the experiment on KG-1a [1] and in the experiment with HL-60 were 2.4 µM and 7700 nM, respectively.
Consider `C=C1C(=O)O[C@H]2[C@H]1CC/C(C=O)=C\CC[C@@]1(C)O[C@@H]21`, for which the half-inhibitory concentration (IC50) came to 6.3 µM in the experiment on KG-1a [1] and 9900 nM with HL-60.
The matching figures for `C=C1C(=O)O[C@H]2[C@H]1CC/C(C(=O)N1CCC(c3ccccc3)CC1)=C\CC[C@@]1(C)O[C@@H]21`: 2.2 µM and 2200 nM.
The matching figures for `C=C1C(=O)O[C@H]2[C@H]1CC/C(COCc1ccc(C(F)(F)F)cc1)=C\CC[C@@]1(C)O[C@@H]21`: 2.4 µM and 1900 nM.
On to `C=C1C(=O)O[C@H]2[C@H]1CC/C(C(=O)N1CCNCC1)=C\CC[C@@]1(C)O[C@@H]21`, for which the IC50 in the experiment on KG-1a [1] was above 50 µM; with HL-60, above 50000 nM.
For `C=C1C(=O)O[C@H]2[C@H]1CC/C(COC(=O)c1ccccc1)=C\CC[C@@]1(C)O[C@@H]21`, the results for the 50% inhibitory concentration (IC50) in the experiment with KG-1a [1] and with HL-60 were 3.3 µM and 2400 nM, respectively.
As to `C=C1C(=O)O[C@H]2[C@H]1CC/C(COC(=O)/C=C/c1ccccc1)=C\CC[C@@]1(C)O[C@@H]21`, the figures for the concentration for half-maximal inhibition (IC50) in the experiment on KG-1a [1] and in the experiment with HL-60 were 0.4 µM and 1100 nM, respectively. Moreover, the Activity in the experiment on KG-1a [2] was 0.381%; in the experiment with KG-1a [3], 22.7%; in the experiment on KG-1a [4] it was 1.37%; with KG-1a [6] it was 0.087%; in the experiment on KG-1a [7], 46.7%; with KG-1a [8], 1.61%. The viability at 10 µM with KG-1a [5] stood at 75.6%. In addition, the viability at 20 µM in the experiment on KG-1a [9] was 51.6%.
On to `C=C1C(=O)O[C@H]2[C@H]1CC/C(C(=O)O)=C\CC[C@@]1(C)O[C@@H]21`, for which the concentration for half-maximal inhibition (IC50) was above 50 µM in the experiment on KG-1a [1] and above 50000 nM in the experiment on HL-60.
The matching figures for `C=C1C(=O)O[C@H]2[C@H]1CC/C(COC(=O)C1CCCCC1)=C\CC[C@@]1(C)O[C@@H]21`: 8.6 µM and 6700 nM.
`COc1cccc2c1C(=O)c1c(O)c3c(c(O)c1C2=O)C[C@@](O)(C(=O)CO)C[C@@H]3O[C@H]1C[C@H](N)[C@H](O)[C@H](C)O1.Cl` [DOXORUBICIN HYDROCHLORIDE]: the IC50 in the experiment on KG-1a [1] was 0.08 µM; with HL-60, 19 nM. Also, the “Ratio IC50” value in experiment [10] was 4.
In the case of `C=C1C(=O)O[C@H]2[C@H]1CC/C(COC(C)=O)=C\CC[C@@]1(C)O[C@@H]21`, the half-maximal inhibitory concentration (IC50) worked out at 6.3 µM with KG-1a [1] and 2800 nM with HL-60.
On to `C=C1C(=O)O[C@@H]2C3O[C@]3(C)CC/C=C(\C)CC[C@@H]12` (some centres undefined), for which the half-inhibitory concentration (IC50) is 3.5 µM in the experiment on KG-1a [1] and 4200 nM in the experiment with HL-60. Besides, the Activity in the experiment with KG-1a [2] amounted to 0.413%; with KG-1a [3], 4.08%; with KG-1a [4] it was 0.327%; with KG-1a [6], 0.336%; with KG-1a [7], 13.1%; in the experiment on KG-1a [8], 1.81%. The viability at 10 µM with KG-1a [5] came out at 95.2%. Besides, the viability at 20 µM in the experiment on KG-1a [9] was found to be 84.7%.
`C=C1C(=O)O[C@H]2[C@H]1CC/C(C(=O)N1CCN(C(=O)OC(C)(C)C)CC1)=C\CC[C@@]1(C)O[C@@H]21`: the IC50 with KG-1a [1] turned out to be 1.7 µM; in the experiment on HL-60, 5100 nM.
In the case of `C=C1C(=O)O[C@H]2[C@H]1CC/C(COC(=O)/C=C/C)=C\CC[C@@]1(C)O[C@@H]21`, the 50% inhibitory concentration (IC50) in the experiment with KG-1a [1] was 5.1 µM; in the experiment with HL-60 it was 4600 nM.
The matching figures for `C=C1C(=O)O[C@H]2[C@H]1CC/C(c1nc3ccccc3s1)=C\CC[C@@]1(C)O[C@@H]21`: 5.1 µM and 8200 nM.
Regarding `C=C1C(=O)O[C@H]2[C@H]1CC/C(COC(=O)c1ccc(C#N)cc1)=C\CC[C@@]1(C)O[C@@H]21`, the 50% inhibitory concentration (IC50) in the experiment with KG-1a [1] was 6.7 µM; in the experiment on HL-60, 1700 nM.
Consider `C=C1C(=O)O[C@H]2[C@H]1CC/C(COC(=O)c1ccccc1C#N)=C\CC[C@@]1(C)O[C@@H]21`, for which the half-maximal inhibitory concentration (IC50) in the experiment with KG-1a [1] is 3.3 µM; with HL-60, 1200 nM.
The matching figures for `C=C1C(=O)O[C@H]2[C@H]1CC/C(COC(=O)c1cccs1)=C\CC[C@@]1(C)O[C@@H]21`: 3.9 µM and 1700 nM.
The matching figures for `C=C1C(=O)O[C@H]2[C@H]1CC/C(C(=O)N1CCCC1)=C\CC[C@@]1(C)O[C@@H]21`: 1.8 µM and 4000 nM.
As for `C=C1C(=O)O[C@H]2[C@H]1CC/C(C(=O)OC)=C\CC[C@@]1(C)O[C@@H]21`, the IC50 was 5.4 µM with KG-1a [1] and 4900 nM in the experiment with HL-60.
The matching figures for `C=C1C(=O)O[C@H]2[C@H]1CC/C(C(=O)N(CCC)CCC)=C\CC[C@@]1(C)O[C@@H]21`: 2 µM and 1000 nM.
In the case of `C=C1C(=O)O[C@H]2[C@H]1CC/C(COC(=O)c1ccc(C(F)(F)F)cc1)=C\CC[C@@]1(C)O[C@@H]21`, the 50% inhibitory concentration (IC50) with KG-1a [1] stood at 4 µM; in the experiment on HL-60 it was 2300 nM.
For the compound `C=C1C(=O)O[C@H]2[C@H]1CC/C(C(=O)OCc1ccccc1)=C\CC[C@@]1(C)O[C@@H]21`, the IC50 worked out at 3.3 µM in the experiment on KG-1a [1] and 2200 nM in the experiment on HL-60.
The matching figures for `C=C1C(=O)O[C@H]2[C@H]1CC/C(COC(=O)c1ccc(OC)cc1)=C\CC[C@@]1(C)O[C@@H]21`: 5.3 µM and 2100 nM.
`C=C1C(=O)O[C@H]2[C@H]1CC/C(C(=O)N1CCCCC1)=C\CC[C@@]1(C)O[C@@H]21`: the IC50 was determined as 3.2 µM with KG-1a [1] and 1800 nM with HL-60.
Consider `C=C1C(=O)O[C@H]2[C@H]1CC/C(C(=O)N1CCC(C)CC1)=C\CC[C@@]1(C)O[C@@H]21`, for which the IC50 with KG-1a [1] stood at 1.6 µM; with HL-60, 6300 nM.
In the case of `C=C1C(=O)O[C@H]2[C@H]1CC/C(COCc1ccccc1)=C\CC[C@@]1(C)O[C@@H]21`, the half-maximal inhibitory concentration (IC50) is 4.8 µM in the experiment on KG-1a [1] and 3500 nM in the experiment with HL-60.
The matching figures for `C=C1C(=O)O[C@H]2[C@H]1CC/C(C(=O)OCc1ccc(C(F)(F)F)cc1)=C\CC[C@@]1(C)O[C@@H]21`: 2 µM and 1000 nM.
For the compound `C=C1C(=O)O[C@H]2[C@H]1CC/C(C(=O)N1CCN(C(=O)/C3=C/CC[C@@]4(C)O[C@H]4[C@H]4OC(=O)C(=C)[C@@H]4CC3)CC1)=C\CC[C@@]1(C)O[C@@H]21`, the IC50 with KG-1a [1] was above 50 µM; in the experiment on HL-60, above 50000 nM.
Consider `C=C1C(=O)O[C@H]2[C@H]1CC/C(C(=O)N1CCOCC1)=C\CC[C@@]1(C)O[C@@H]21`, for which the IC50 is 29.9 µM in the experiment on KG-1a [1] and 3900 nM in the experiment on HL-60.
The matching figures for `C=C1C(=O)O[C@H]2[C@H]1CC/C(CO)=C\CC[C@@]1(C)O[C@@H]21`: 6.8 µM and 10300 nM.
The matching figures for `C=C1C(=O)O[C@H]2[C@H]1CC/C(C(=O)N(CCCC)CCCC)=C\CC[C@@]1(C)O[C@@H]21`: 1.4 µM and 3700 nM.
With `C=C1C(=O)O[C@H]2[C@H]1CC/C(C(=O)N(CC)CC)=C\CC[C@@]1(C)O[C@@H]21`, the half-maximal inhibitory concentration (IC50) in the experiment with KG-1a [1] turned out to be 4.3 µM; with HL-60 it was 2700 nM.
The matching figures for `C=C1C(=O)O[C@H]2[C@H]1CC/C(COCc1ccc(OC)cc1)=C\CC[C@@]1(C)O[C@@H]21`: 1.1 µM and 2700 nM.
